From patent US11779618B2, “Treatment of topical and systemic bacterial infections” (priority 2014, dated 2023) come the findings set out here.

In this assay the test system is S. aureus 8588. Nature of the assay: Effectiveness against S. aureus 8588 (absorbance, Mueller-Hinton broth). In kind it is cell-based. The note with it: 0.01 mg/ml ampicillin (below MIC). The source says:
The absorbance readings of treatments above the MIC were similar to the negative control of Mueller-Hinton broth alone indicating no bacterial growth.
The absorbance readings of the phage K treated wells were similar to the negative control Mueller-Hinton broth alone.

In the case of `CC1(C)S[C@@H]2[C@H](NC(=O)[C@H](N)c3ccccc3)C(=O)N2[C@H]1C(=O)O` [ampicillin], the “effect on bacterial growth” value is reported as “has some effect on bacterial growth but is not totally effective”.
